Assays:
Type in all cases: in vivo
Aphis gossypii = assay: Cotton Aphid (Aphis gossypii) assay, spray on squash seedlings; conditions: rate 50 ppm, relative to plants sprayed with solvent only
Description: Insecticidal activities of the compounds of the invention were also evaluated against cotton aphids (Aphis gossyppi) as follows. Summer crookneck squash seedlings at the expanded cotyledon stage are primed to a single cotyledon and infested with cotton aphids 16-24 hours before application of the test material by transfer of infested foliage cut from a stock colony. Immediately prior to spray application of the test material, the transfer foliage is removed from the squash plants. The test material is dissolved at 1 mg/ml in 90:10 acetone:alcohol, then diluted in water containing 0.05% Tween 20 (polyethylene (20) sorbitan monolaurate) to give test solution at a concentration of 50 ppm. The plants were sprayed with the test solution using an atomizing sprayer at 17 psi. Both surfaces of the cotyledons are covered until runnoff, and then allowed to dry. Activity of the compound was determined at three days after treatment. Activity was rated as a percent based on the number of aphids present in plants sprayed with solvent only.

Heliothis virescens [1] = assay: Tobacco Budworm (Heliothis virescens) feeding assay, cotton leaf-dip; conditions: second instar larvae
Description: To compare insecticidal activities of compounds of the invention against second instar larval Heliothis virescens leaf-dip bioassay was used. Cotton cotyledon leaves were dipped in a test solution made up of the compound dissolved in acetone: Millipore water (2:1) at rates of 400 ppm to 1.56 ppm. Each cotyledon was placed individually on top of a moistened (distilled water) cotton ball in the bottom of a 1 oz plastic cup and allowed to dry (one hour). After drying, a single laboratory-reared second instar Heliothis virescens larva (mean weight 15 mg.) was placed on the treated leaf and the cup sealed with a lid, and held at 27° C. for four days. Percent mortality was determined at the end of the holding period.

Heliothis virescens [2] = assay: Tobacco Budworm (Heliothis virescens) topical assay
Description: An additional measure of the relative insecticidal activities of the compounds of the invention was generated by using a 1 ug/ul acetone solution of each compound applied at 1 ug/larva of laboratory-reared Heliothis virescens larvae (mean weight of 22 mg). Each compound was applied along the dorsum of each of six larvae. Treated larvae were then held for two days at 21° C., 60% RH in six-well plastic culture plates. Larvae were each supplied with a 1 cm^3 of agar-based lepidoptera diet for sustenance during the two-day post-exposure interval. Percent mortality was determined at the end of a two-day period.

Heliothis virescens [3] = assay: Tobacco Budworm (Heliothis virescens) feeding assay, cotton leaf-dip; conditions: rate 600 ppm, second instar larvae, 96 h

Structure (SMILES): CCCCOC1C(OC)C(C)OC(OC2CC3CCC4C5CC(=O)OC(CCCC)CCCC(OC6CCC(N(C)C)C(C)O6)C(C)C(=O)C5=CC4C3C2)C1OC (stereo not shown) [Compound A17]
- Cotton Aphid mortality (72 h) Mortality (%) (Aphis gossypii): 100%
- Tobacco Budworm Feeding (96 h) Mortality (%) (Heliothis virescens [1]; rate 6.25 ppm): 10%
- Tobacco Budworm Typical (48 h) Mortality (%) (Heliothis virescens [2]; rate 1 µg/larva, 48 h): 100%

Structure (SMILES): CCCCCOC1C(OC)C(C)OC(OC2CC3CCC4C5CC(=O)OC(CCCC)CCCC(OC6CCC(N(C)C)C(C)O6)C(C)C(=O)C5=CC4C3C2)C1OC (stereo not shown) [Compound A18]
- Cotton Aphid mortality (72 h) Mortality (%) (Aphis gossypii): 91%
- Tobacco Budworm Feeding (96 h) Mortality (%) (Heliothis virescens [1]; rate 1.56 ppm): 20%
- Tobacco Budworm Typical (48 h) Mortality (%) (Heliothis virescens [2]; rate 1 µg/larva, 48 h): 33%

Structure (SMILES): CCCC[C@H]1CCC[C@H](OC2CC[C@H](N(C)C)[C@@H](C)O2)[C@@H](C)C(=O)C2=CC3C4C[C@H](O[C@@H]5O[C@@H](C)[C@H](OC)[C@@H](OC)[C@H]5OC)CC4CCC3C2CC(=O)O1 (stereo partly shown) [Compound B3, 5,6,22,23-tetrahydro-for-rham-I]
- mortality at 50 ppm (Aphis gossypii; Aphis gossypii, 72 h): 53%
- mortality at 6.25 ppm (Heliothis virescens [1]; Heliothis virescens, rate 6.25 ppm, 96 h): 100%
- Tobacco Budworm Typical (48 h) Mortality (%) (Heliothis virescens [2]; in vivo): 100%

Structure (SMILES): CCCC[C@H]1CCC[C@H](OC2CC[C@H](N(C)C)[C@@H](C)O2)[C@@H](C)C(=O)C2=CC3C4C[C@H](O[C@@H]5O[C@@H](C)[C@H](OC)[C@@H](O)[C@H]5OC)CC4CCC3C2CC(=O)O1 (stereo partly shown) [Compound B12, 5,6,22,23-tetrahydro-for-(3′-O-desmethylrham)-I]
- mortality at 600 ppm (Heliothis virescens [3]): 100%

From US6919464B1, “Synthetic derivatives of 21-butenyl and related spinosyns” (Dow AgroSciences LLC, priority 2001, dated 2005)
